The test system of this series is CCRIS mutagenicity, Ames/micronucleus/aberration tests. The series can be described thus: CCRIS mutagenicity studies.
Setting [1] is: Test System: AMES SALMONELLA TYPHIMURIUM, Strain/Indicator: TA100, Metabolic Activation: RAT, LIVER, S-9, AROCLOR 1254, Method: PREINCUBATION
The mark [2] stands for this setting: Test System: AMES SALMONELLA TYPHIMURIUM, Strain/Indicator: TA98, Metabolic Activation: NONE, Method: STANDARD PLATE.
The mark [3] stands for this setting: Test System: AMES SALMONELLA TYPHIMURIUM, Strain/Indicator: TA100, Metabolic Activation: NONE, Method: STANDARD PLATE.

The structures appear in SMILES notation. Activity calls are given as the source filed them. No rule for the calls is given here.

On to `Cc1cc(N=Nc2c(O)ccc3ccccc23)c(S(=O)(=O)O)cc1Cl`, for which the mutagenic call reads like this: (End Point: IN VITRO CHROMOSOMAL ABERRATIONS, Test System: CHO CELLS, Metabolic Activation: NONE) “inactive; negative”; (End Point: IN VITRO CHROMOSOMAL ABERRATIONS, Test System: CHO CELLS, Metabolic Activation: RAT, LIVER, S-9, AROCLOR 1254) “inactive; negative”; (Test System: AMES SALMONELLA TYPHIMURIUM, Strain/Indicator: TA97, Metabolic Activation: HAMSTER, LIVER, S-9, AROCLOR 1254 (10%), Method: PREINCUBATION) “inactive; negative”; (Test System: AMES SALMONELLA TYPHIMURIUM, Strain/Indicator: TA97, Metabolic Activation: NONE, Method: PREINCUBATION) “inactive; negative”; (Test System: AMES SALMONELLA TYPHIMURIUM, Strain/Indicator: TA97, Metabolic Activation: RAT, LIVER, S-9, AROCLOR 1254 (10%), Method: PREINCUBATION) “inactive; negative”; (Test System: AMES SALMONELLA TYPHIMURIUM, Strain/Indicator: TA98, Metabolic Activation: HAMSTER, LIVER, S-9, AROCLOR 1254 (5, 10 OR 30%), Method: PREINCUBATION) “inactive; negative”. Also, the mutagenic call (Test System: AMES SALMONELLA TYPHIMURIUM, Strain/Indicator: TA98, Metabolic Activation: RAT, LIVER, S-9, AROCLOR 1254 (10%), Method: PREINCUBATION) is “inactive; negative”; the mutagenic call (Test System: AMES SALMONELLA TYPHIMURIUM, Strain/Indicator: TA100, Metabolic Activation: HAMSTER, LIVER, S-9, AROCLOR 1254 (10%), Method: PREINCUBATION) was “inactive; negative”; the mutagenic call (Test System: AMES SALMONELLA TYPHIMURIUM, Strain/Indicator: TA100, Metabolic Activation: NONE, Method: PREINCUBATION) was “inactive; negative”; the mutagenic call (Test System: AMES SALMONELLA TYPHIMURIUM, Strain/Indicator: TA100, Metabolic Activation: RAT, LIVER, S-9, AROCLOR 1254 (10%), Method: PREINCUBATION) was “inactive; negative”; the mutagenic call (Test System: AMES SALMONELLA TYPHIMURIUM, Strain/Indicator: TA100, Metabolic Activation: RAT, LIVER, S-9, AROCLOR 1254, FLAVIN MONONUCLEOTIDE, Method: PREINCUBATION (PRIVAL METHOD)) was “inactive; negative”; the mutagenic call under setting [1] was “inactive; negative”. Also, the mutagenic call (Test System: AMES SALMONELLA TYPHIMURIUM, Strain/Indicator: TA1535, Metabolic Activation: HAMSTER, LIVER, S-9, AROCLOR 1254 (10%), Method: PREINCUBATION) was “inactive; negative”; the mutagenic call (Test System: AMES SALMONELLA TYPHIMURIUM, Strain/Indicator: TA1535, Metabolic Activation: NONE, Method: PREINCUBATION) is “inactive; negative”; the mutagenic call (Test System: AMES SALMONELLA TYPHIMURIUM, Strain/Indicator: TA1535, Metabolic Activation: RAT, LIVER, S-9, AROCLOR 1254 (10%), Method: PREINCUBATION) is “inactive; negative”; the mutagenic call (Test System: AMES SALMONELLA TYPHIMURIUM, Strain/Indicator: TA1537, Metabolic Activation: NONE, Method: PREINCUBATION) was “inactive; negative”.

On to `CCCCCCCC(=O)N=c1sn(C(=O)CCCCCCC)c2ccc([N+](=O)[O-])cc12`, for which the mutagenic call (Test System: AMES SALMONELLA TYPHIMURIUM, Strain/Indicator: TA100, Metabolic Activation: S-9, Method: STANDARD PLATE) was “active; positive”.

Regarding `Cc1ccc2nc(N)[nH]c2c1`, the mutagenic call (Test System: AMES SALMONELLA TYPHIMURIUM, Strain/Indicator: TA98, Metabolic Activation: RAT, LIVER, S-9, AROCLOR 1254, Method: PREINCUBATION) was “active; positive” and the mutagenic call under setting [1] is “inactive; negative”.

As to `CCOP(=O)(Oc1ccc([N+](=O)[O-])cc1)c1ccccc1` (stereo not drawn), the mutagenic call reads like this: under setting [2], “active; positive”; (Test System: AMES SALMONELLA TYPHIMURIUM, Strain/Indicator: TA98, Metabolic Activation: RAT, LIVER, S-9, Method: STANDARD PLATE) “inactive; negative”; under setting [3], “inactive; negative”; (Test System: AMES SALMONELLA TYPHIMURIUM, Strain/Indicator: TA100, Metabolic Activation: RAT, LIVER, S-9, Method: STANDARD PLATE) “inactive; negative”.

In the case of `O=c1cc2ccc3cccc4ccc([nH]1)c2c34`, the mutagenic call was “active; positive” under setting [2]; “active; positive” (Test System: AMES SALMONELLA TYPHIMURIUM, Strain/Indicator: TA98, Metabolic Activation: RAT, LIVER, S-9, AROCLOR 1254, Method: STANDARD PLATE); “inactive; negative” under setting [3]; “active; positive” (Test System: AMES SALMONELLA TYPHIMURIUM, Strain/Indicator: TA100, Metabolic Activation: RAT, LIVER, S-9, AROCLOR 1254, Method: STANDARD PLATE).

Turning to `COc1ccnc(=O)[nH]1`, the mutagenic call under setting [3] was “active; positive”.

For the origin of these results see PubChem BioAssay AID1259407 (Chemical Carcinogenesis Research Information System (CCRIS), 2018).
